Experimental data published in patent US8945566B2, “Methods for improving the bioactivity of therapeutic IgE antibodies for the treatment of disease” (Quest PharmaTech, Inc., priority 2008, dated 2015).

Assays:
[1] = tested on: transgenic mice expressing the human FcεRIα; test: passive cutaneous anaphylaxis with tumor microspheroids; assay type: in vivo; settings: agent administered to the mouse
Description: Passive cutaneous anaphylaxis is performed in transgenic mice expressing the human FcεRIα. Transgenic mice are shaved and injected intradermally in different regions of the dorsal side with […] of 6 mg/ml histamine base (HollisterStier, Spokane, Wash.), 1 μg anti-PSA IgE, CT26-PSA or CT26-Neo microspheroid alone, 2 μg of crosslinker anti-human kappa antibody alone, 1 μg anti-PSA IgE plus CT26-PSA or CT26-Neo microspheroid, or 1 μg anti-PSA IgE crosslinked with 2 μg of an anti-human kappa antibody. After 15 min, 1% Evans Blue in […] saline is injected i.v. Mice are sacrificed 20 min later, and local cutaneous anaphylaxis is assessed visually by the blue leakage in the area surrounding the injection. […] This effect is not prevented by administration of cortisol to the mouse; however pre-administration of an H1 blocking agent inhibits the size of the response.

[2] = tested on: SKBR3 human breast cancer cells; test: histamine release and tumor cell killing with effector cells (PBMC or RBL-Sx-38); assay type: cell-based; settings: poly IC 1 to 25 μg/ml added 30 minutes to 4 hours post co-incubation
Description: Tumor cells are incubated with increasing concentrations of Her-2 specific IgG or IgE and combined with the effector cells. Evidence of local effector cell activation is measured by assessing histamine and or beta hexosimimidase release into the culture supernatant. Confirmatory experiments showing specificity for the Her-2 Ag can be conducted using anti-NP IgE and NP-HSA or anti-PSA IgE and PSA or conjugated PSA. In addition to immediate hypersensitivity, the target cells can be pre-labeled with Calcein AM and the ability of the anti-Her2 IgE or IgG to induce tumor killing can be monitored via direct effect of the PBMC or the RBL-Sx-38 cells in inducing release of the Calcein AM label.
Having established the baseline activity of a representative Ag specific IgE monoclonal in terms of both histamine release and basic tumor cell killing, the effect of corticosteroid and specific adjuvant on the model can be measured. […] The ability of TLR3 stimulation to augment the ADCC effect is addressed by adding low concentrations (1 to 25 μg/ml) of poly IC (Sigma) to the system at various time points.

C[C@]12CCC(=O)C=C1CC[C@@H]1[C@@H]2[C@@H](O)C[C@@]2(C)[C@H]1CC[C@]2(O)C(=O)CO [cortisol]
effect of co-medication on IgE-induced wheal and flare reaction [1]: not prevented

poly IC
cell killing (ADCC effect) [2]: enhances the amount of killing observed
